# In publication PMC7582476, “Discovery of Novel Indoleamine 2,3-Dioxygenase 1 (IDO1) and Histone Deacetylase 1 (HDAC1) Dual Inhibitors Derived from the Natural Product Saprorthoquinone” (Molecules, 2020):
# Read-outs that look alike come from different tables or passages of the source.
# Legend:
# IDO1 = molecular target: T1, IDO1 (Homo sapiens, UniProt P14902); test: IDO1 enzymatic assay; assay type: biochemical; conditions: for IC50: mean ± SD of at least two independent assays
# T1 construct: No. 20160706
# T1 sequence (P14902 whole entry): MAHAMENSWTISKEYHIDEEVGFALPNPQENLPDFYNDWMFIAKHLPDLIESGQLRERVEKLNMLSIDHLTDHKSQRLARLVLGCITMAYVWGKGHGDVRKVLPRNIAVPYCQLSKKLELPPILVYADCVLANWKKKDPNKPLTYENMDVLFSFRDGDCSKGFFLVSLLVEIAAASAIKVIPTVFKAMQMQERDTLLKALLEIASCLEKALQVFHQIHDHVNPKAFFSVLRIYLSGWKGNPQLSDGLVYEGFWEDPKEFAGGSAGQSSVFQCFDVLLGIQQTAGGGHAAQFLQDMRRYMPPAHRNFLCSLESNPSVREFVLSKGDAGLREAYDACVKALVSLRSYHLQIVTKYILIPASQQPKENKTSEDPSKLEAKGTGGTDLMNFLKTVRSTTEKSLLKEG
# Experimental: (1) Prepare 100× compound of the final desired highest inhibitor concentration in reaction by 100% DMSO. For example, if compounds test at 10 μM, then prepare 1 mM of compound solution in this step. Then dilute compound with DMSO in 3-fold mode to obtain different concentrations. Mark as source plate. (2) Add 100 μL of 100% DMSO to column 1 and column 12 for background control and no compound high control respectively.
# Transfer 2 μL of each well from the 96-well source plate to a 96-well assay plate.
# • (3) Enzyme Reaction • Prepare 2× enzyme solution. Add IDO-1 in assay buffer. • Prepare 2× substrate solution. Add L-tryptophan, ascorbate, methylene blue, catalase in the assay buffer. • Assay plate already contains 2 μL of compound in 100% DMSO. • Transfer 2× enzyme solution to the assay plate. Add 100 μL of 2× enzyme solution to each well of the 96-well assay plate. • Incubate at room temperature for 10 min. • Transfer […] to each well of the 96-well assay plate. • Read OD321 kinetically by Spectramax (Molecular Devices, LLC, San Jose, CA, USA). • (4) Curve Fitting • Copy data from Spectramax program. Percent inhibition = (max-conversion)/(max − min) × 100. “max” stands for high control; “min” stands for low control. • Fit the data in XL-Fit to obtain IC50 values. Equation used is: Y = Bottom + (Top − Bottom)/(1 + 10^((LogIC50 − X) × Hill Slope)
# A549 cell line = test: Anti-proliferation assay in A549 cell line (CellTiter-Glo); assay type: cell-based; conditions: Homo sapiens; A549 cells, 48 h, CTG assay
# Experimental: Cell viability was measured by the CellTiter-Glo Luminescent (CTG) assay. A549 cells (ATCC, Cat. No.CCL-185) were seeded (2000 cells/well) in 96-well plates and cells were left to incubate at 37 °C for 24 h. After 24 h, prepare compounds with 5-fold dilution in DMSO to the compound plate (200-fold of the final concentration) and transfer 5 μL from the compound plate to 95 μL intermediate medium in the intermediate plate (10-fold of the final concentration). Then transfer 10 μL from the intermediate plate to the cell plates. The final DMSO is 0.5%. After continuing to incubate for 48 h, add 50 μL CTG reagent to each well and read luminescence according to CTG product manual.
# HDAC1 = molecular target: T2, HDAC1 (Homo sapiens, UniProt Q13547); test: HDAC enzymatic assay; assay type: biochemical; conditions: mean ± SD of at least two independent assays
# T2 construct: purchased BPS Bioscience Inc. 50051
# T2 sequence (Q13547 whole entry): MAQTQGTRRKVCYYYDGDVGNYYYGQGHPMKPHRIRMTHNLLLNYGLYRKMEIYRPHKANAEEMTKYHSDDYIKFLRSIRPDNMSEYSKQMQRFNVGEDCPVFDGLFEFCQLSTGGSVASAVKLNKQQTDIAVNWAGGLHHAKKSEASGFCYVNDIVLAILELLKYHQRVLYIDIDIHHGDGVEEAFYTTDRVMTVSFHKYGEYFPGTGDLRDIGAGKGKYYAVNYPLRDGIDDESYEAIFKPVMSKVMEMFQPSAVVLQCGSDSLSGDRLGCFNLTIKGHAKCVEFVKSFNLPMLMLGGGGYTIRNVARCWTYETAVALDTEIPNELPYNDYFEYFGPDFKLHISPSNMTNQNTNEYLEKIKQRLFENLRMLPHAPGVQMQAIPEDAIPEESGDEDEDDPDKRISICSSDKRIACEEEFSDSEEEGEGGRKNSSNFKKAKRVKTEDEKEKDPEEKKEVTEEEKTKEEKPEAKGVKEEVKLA
# Experimental: • (1) Prepare 1× assay buffer (modified Tris Buffer). • (2) Compound serial dilution: Transfer compounds to assay plate by Echo in 100% DMSO. The final fraction of DMSO is 1%. • (3) Prepare enzyme solution in 1× assay buffer. • (4) Add trypsin and Ac-peptide substrate in 1× assay buffer to make the substrate solution. • (5) Transfer 15 μL of enzyme solution to assay plate or for low control transfer 15 μL of 1× assay buffer. • (6) Incubate at room temperature for 15 min. • (7) Add 10 μL of substrate solution to each well to start reaction. • (8) Incubate at room temperature for 60 min. • (9) Read the plate on Synergy MX with excitation at 355 nm and emission at 460 nm. • (10) Curve fitting: Fit the data in Excel to obtain inhibition values using Equation (1).
# Inh% = (Max − Signal)/(Max − Min) × 100(1)
# Fit the data in XL-Fit to obtain IC50 values using Equation (2); Y = Bottom + (Top − Bottom)/(1 + 10^((LogIC50 − X) × Hill Slope))(2)
# Y is %inhibition and X is compound concentration.
# [1] = 10 μM, Table 1 natural products, read-out: IDO1 Inhibition @ 10 μM (%)
# [2] = 10 μM, Tables 2 and 3, read-out: IDO1 % Inhibition at 10 μM (converted)
# [3] = 10 μM, Table 1 natural products
Compound,inhibition at 10 µM (IDO1; [1]) [%],inhibition at 10 µM (IDO1; [2]) [%],IC50 (A549 cell line) [µM],further results
Cc1coc2c1C(=O)C(=O)c1c-2ccc2c(C)cccc12 [Compound 4],65,–,–,–
"Cc1ccc2c(c1CCCOS(C)(=O)=O)C(=O)C(=O)C(C(C)C)=C2 [Compound 24a, 3-(6-Isopropyl-2-methyl-7,8-dioxo-7,8-dihydronaphthalen-1-yl)propyl methanesulfonate]",–,91,11.8,IC50 (IDO1): 0.72 ± 0.13 µM
Cc1ccc2c(c1CCC(=O)C(C)C)C(=O)C(=O)C(C(C)C)=C2 [Compound 7],86,–,–,–
"Cc1ccc2c(c1CCC(=O)Nc1ccc(F)c(Br)c1)C(=O)C(=O)C(C(C)C)=C2 [Compound 21d, N-(3-Bromo-4-fluorophenyl)-3-(6-isopropyl-2-methyl-7,8-dioxo-7,8-dihydronaphthalen-1-yl)propanamide]",–,65,9.31,–
"Cc1ccc2c(c1CCC(=O)Nc1ccc(F)cc1N)C(=O)C(=O)C(C(C)C)=C2 [Compound 27c, N-(2-amino-4-fluorophenyl)-3-(6-isopropyl-2-methyl-7,8-dioxo-7,8-dihydronaphthalen-1-yl)propanamide]",–,56,> 20,IC50 (HDAC1): > 100 µM
CC(C)C1=CC(=O)C([C@@]2(C)CCCC(C)(C)[C@@H]2CC=O)=CC1=O [Compound 13],6,–,–,–
"Cc1ccc2c(c1CCCOS(N)(=O)=O)C(=O)C(=O)C(C(C)C)=C2 [Compound 24c, 3-(6-Isopropyl-2-methyl-7,8-dioxo-7,8-dihydronaphthalen-1-yl)propyl sulfamate]",–,86,11.1,–
CC1COC2=C1C(=O)C(=O)c1c2ccc2c1CCCC2(C)C (stereo not drawn) [Compound 6],66,–,–,–
"Cc1ccc2c(c1CCC(=O)Nc1cc(F)ccc1N)C(=O)C(=O)C(C(C)C)=C2 [Compound 27b, N-(2-Amino-5-fluorophenyl)-3-(6-isopropyl-2-methyl-7,8-dioxo-7,8-dihydronaphthalen-1-yl)propanamide]",–,84,9.51,IC50 (HDAC1): > 100 µM
Cc1cccc2c3c(ccc12)C(=O)C(C(C)C)=C(O)C3=O [Compound 12],13,–,–,–
Cc1ccc2c(c1CCCC(C)(C)O)C(=O)C(O)=C(C(C)C)C2=O [Compound 11],2,–,–,IDO1 Inhibition @ 10 μM (%) (IDO1; [3]): almost lost their activity
CC(C)C1=Cc2ccc3c(c2C(=O)C1=O)CCCC3(C)C [Compound 5],–,–,–,inhibition at 10 µM (IDO1; read-out: IDO1 Inhibition @ 10 μM (%)): 81%
CC(C)C1=C(O)C(=O)C23OC2(C(=O)CC2C(C)(C)CCCC23C)C1=O (stereo not drawn) [Compound 15],3,–,–,IDO1 Inhibition @ 10 μM (%) (IDO1; [3]): almost lost their activity

# Now from value to molecule, other results behind:
inhibition at 10 µM (IDO1; [1]) [%],inhibition at 10 µM (IDO1; [2]) [%],IC50 (A549 cell line) [µM],Compound,further results
–,64,7.49,"Cc1ccc2c(c1CCC(=O)Nc1ccc(C(F)(F)F)cc1)C(=O)C(=O)C(C(C)C)=C2 [Compound 21c, 3-(6-Isopropyl-2-methyl-7,8-dioxo-7,8-dihydronaphthalen-1-yl)-N-(4-(trifluoromethyl)phenyl)propanamide]",–
–,74,12.2,"Cc1ccc2c(c1CCC(=O)NCc1cn(C)c3ccccc13)C(=O)C(=O)C(C(C)C)=C2 [Compound 21g, 3-(6-Isopropyl-2-methyl-7,8-dioxo-7,8-dihydronaphthalen-1-yl)-N-((1-methyl-1H-indol-3-yl)methyl)-propanamide]",–
–,80,13.1,"Cc1ccc2c(c1CCC(=O)Nc1cccc(F)c1)C(=O)C(=O)C(C(C)C)=C2 [Compound 21a, N-(3-Fluorophenyl)-3-(6-isopropyl-2-methyl-7,8-dioxo-7,8-dihydronaphthalen-1-yl)propanamide]",IC50 (IDO1): 1.33 ± 0.01 µM
–,88,17.8,"Cc1ccc2c(c1CCC(=O)Nc1ccccc1N)C(=O)C(=O)C(C(C)C)=C2 [Compound 27a, N-(2-Aminophenyl)-3-(6-isopropyl-2-methyl-7,8-dioxo-7,8-dihydronaphthalen-1-yl)propanamide]",IC50 (IDO1): 0.72 ± 0.1 µM; IC50 (HDAC1): > 100 µM
61,–,–,COC(=O)[C@@]1(C)CCCc2c1ccc1c2C(=O)C(=O)C2=C1OCC2C (stereo partly drawn) [Compound 9],–
–,79,> 20,"Cc1ccc2c(c1CCC(=O)NCc1c[nH]c3ccccc13)C(=O)C(=O)C(C(C)C)=C2 [Compound 21f, N-((1H-indol-3-yl)methyl)-3-(6-isopropyl-2-methyl-7,8-dioxo-7,8-dihydronaphthalen-1-yl)propanamide]",–
–,78,14.5,"Cc1ccc2c(c1CCC(N)=O)C(=O)C(=O)C(C(C)C)=C2 [Compound 19, 3-(6-Isopropyl-2-methyl-7,8-dioxo-7,8-dihydro-naphthalen-1-yl)propanamide]",IC50 (IDO1): 0.51 ± 0.04 µM
73,–,–,Cc1ccc2c(c1C(=O)CCC(C)(C)O)C(=O)C(=O)C(C(C)C)=C2 [Compound 8],–
–,82,> 20,"Cc1ccc2c(c1CCC(=O)NCCCCCC(=O)Nc1ccccc1N)C(=O)C(=O)C(C(C)C)=C2 [Compound 33d, N-(2-Aminophenyl)-6-(3-(6-isopropyl-2-methyl-7,8-dioxo-7,8-dihydronaphthalen-1-yl)propanamido) hexanamide]",IC50 (IDO1): 0.71 ± 0.03 µM; IC50 (HDAC1): 0.46 ± 0.07 µM
30,–,–,CC(C)=CCCc1c(C)ccc2c1C(=O)C(O)=C(C(C)C)C2=O [Compound 14],–
–,90,12.8,"Cc1ccc2c(c1CCC(O)C(C)(C)O)C(=O)C(=O)C(C(C)C)=C2 (stereo not drawn) [Compound 17, 8-(3,4-Dihydroxy-4-methylpentyl)-3-isopropyl-7-methylnaphthalene-1,2-dione]",IC50 (IDO1): 0.74 ± 0.15 µM
3,–,–,Cc1ccc2c(c1/C=C\C(=O)C(C)(C)O)C(=O)C(O)=C(C(C)C)C2=O [Compound 16],IDO1 Inhibition @ 10 μM (%) (IDO1; [3]): almost lost their activity
85,85,9.97,"CC(C)=CCCc1c(C)ccc2c1C(=O)C(=O)C(C(C)C)=C2 [Compound 1, saprorthoquinone]",IC50 (IDO1): 1.76 ± 0.27 µM
–,66,> 20,"COc1ccc(NC(=O)CCc2c(C)ccc3c2C(=O)C(=O)C(C(C)C)=C3)cc1 [Compound 21e, 3-(6-Isopropyl-2-methyl-7,8-dioxo-7,8-dihydronaphthalen-1-yl)-N-(4-methoxyphenyl)propanamide]",–
–,86,> 20,"Cc1ccc2c(c1CCC(=O)O)C(=O)C(=O)C(C(C)C)=C2 [Compound 18, 3-(6-Isopropyl-2-methyl-7,8-dioxo-7,8-dihydronaphthalen-1-yl)propanoic acid]",IC50 (IDO1): 0.99 ± 0.24 µM
2,–,–,CC(C)C1=C(O)C(=O)C2=C(CC[C@H]3C(C)(C)CCC[C@]23C)C1=O [Compound 10],IDO1 Inhibition @ 10 μM (%) (IDO1; [3]): almost lost their activity
–,64,14.8,"Cc1ccc2c(c1CCC(=O)Nc1ccc(F)cc1)C(=O)C(=O)C(C(C)C)=C2 [Compound 21b, N-(4-Fluorophenyl)-3-(6-isopropyl-2-methyl-7,8-dioxo-7,8-dihydronaphthalen-1-yl)propanamide]",–
–,87,15.5,"CCS(=O)(=O)OCCCc1c(C)ccc2c1C(=O)C(=O)C(C(C)C)=C2 [Compound 24b, 3-(6-Isopropyl-2-methyl-7,8-dioxo-7,8-dihydronaphthalen-1-yl)propyl ethanesulfonate]",–
